Drawing on US10344026B2, “Compositions and methods of targeting mutant K-ras” (NANTBIO, INC., priority 2017, dated 2019), this text covers IC50 and EC50 for ten compounds.

Common to all, as to type: cell-based
Assay [1] deals with U87-MG (K-Ras wild type cell line). Description: Viability assay (CellTiterBlue, 72 hr) U87-MG. To be noted: Homo sapiens, U-87 MG, GI50, CellTiterBlue, U87-MG K-Ras wild-type. The essentials:
(§1)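 1000 cells/well, 18 hr pre-incubation at 37 °C; compound added from DMSO stock, 0.5% DMSO final; 72 hr; CellTiterBlue 3 hr, fluorescence Ex550/Em590; GI50 normalized to DMSO = 100%, 100 uM tamoxifen = 0% viability.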

Assay [2] deals with T1, K-Ras G12D (Homo sapiens, UniProt P01116, G12D).
T1 construct: expressed in transfected cells; host or cells: 293H cells
T1 sequence (P01116 whole entry G12D): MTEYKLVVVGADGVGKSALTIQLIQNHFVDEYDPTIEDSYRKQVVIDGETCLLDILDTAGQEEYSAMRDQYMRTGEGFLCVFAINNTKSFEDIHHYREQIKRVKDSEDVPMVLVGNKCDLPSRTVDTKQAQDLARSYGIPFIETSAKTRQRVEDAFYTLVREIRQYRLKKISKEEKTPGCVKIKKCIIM
Put plainly: G-LISA Ras activation, 293H cells transfected with G12D mutant. Conditions: compound 1 hour. As for the experimental part:
(§2) 293H cells were seeded in 6-wells at 0.6×10^6 cells per well and transfected next day with 5 μg of Ras wild-type, or G12C, G12D or G12V mutant DNA plasmid vector using transfection reagent Lipofectamine 3000. Next day cells were treated with 3.125-25 μM of Ras compounds for 1 hour. Wild-type transfected cells were subsequently treated with 100 ng/ml EGF for 2 minutes. Cells were washed once in ice-cold PBS, lysed in complete lysis buffer on ice, and processed by G-LISA according to Cytoskeleton protocol.

Assay [3] relates to HCT116-G31D. Put plainly: Viability assay (CellTiterBlue, 72 hr) HCT116. To be noted: Homo sapiens, HCT-116, GI50, CellTiterBlue, HCT116 K-Ras G13D, read-out: 72 hr Cell Viability HCT116 (G13D). The essentials: as §1
Assay [4] deals with T2, wild type K-Ras (Homo sapiens, UniProt P01116).
T2 construct: expressed in transfected cells; host or cells: 293H cells
T2 sequence (P01116 whole entry): as the sequence (P01116 whole entry G12D) above, with D12G counted along it
Put plainly: G-LISA Ras activation, 293H cells transfected with Ras wild-type, EGF stimulated. To be noted: compound 1 hour, then 100 ng/ml EGF 2 minutes. As for the experimental part:
as §2

Assay [5] deals with HCC827 (K-Ras wild type cell line). Put plainly: Viability assay (CellTiterBlue, 72 hr) HCC827. To be noted: Homo sapiens, GI50, CellTiterBlue, HCC827 K-Ras wild-type. On the procedure: Viability assays were performed on exemplary compounds and Table 2 below lists exemplary results for selected compounds tested on K-Ras wild type cell lines (Ishikawa, U87-MG, HCC827, and A375) and various K-Ras mutant cell lines (Panc1-G12D; Panc10.05-G12D; HCT116-G31D). Results are expressed in μM and corresponding structures are shown in FIGS. 2A-2G and Examples 1-152, above.
Cells are counted and seeded at 1000 cells/36 ul medium/well into 384-well microplates. Cells are returned to 37° C. CO2 incubator for 18 hr. Drug is made as 200× in DMSO and diluted into medium to 10×. To each well is added 4 ul 10× drug, and plates are returned to the incubator. Final assay DMSO concentration is 0.5%. After 72 hr, 8 ul CellTiterBlue (Promega) is added to each well. After 3 hr, fluorescence (Ex550/Em590) is determined on the Victor Plate Reader (Perkin Elmer). Assay range is determined by DMSO control (100% viability) and 100 uM tamoxifen (0% viability). GI50 values are calculated using Graphpad Prism.

Assay [6] relates to Panc1-G12D. Description: Viability assay (CellTiterBlue, 72 hr) Panc1. To be noted: Homo sapiens, PANC-1, GI50, CellTiterBlue, Panc1 K-Ras G12D, read-out: 72 hr Cell Viability Panc1 (G12D). The essentials: as §1
(Alamar Blue is a resazurin reagent that responds to reducing activity.)

Assay [7] has as its system Ishikawa (K-Ras wild type cell line). Description: Viability assay (CellTiterBlue, 72 hr) Ishikawa. Conditions: Homo sapiens, GI50, CellTiterBlue, Ishikawa K-Ras wild-type. The essentials:
as §1

Assay [8] deals with Panc10.05-G12D. Put plainly: Viability assay (CellTiterBlue, 72 hr) Panc10.05. To be noted: Homo sapiens, Panc1005, GI50, CellTiterBlue, Panc10.05 K-Ras G12D, read-out: 72 hr Cell Viability Panc10.05 (G12D). The essentials:
as §1

Assay [9] has as its system phospho-Akt in Panc1 (G12D). Put plainly: In-Cell Western phospho-Akt, Panc1. To be noted: Homo sapiens, PANC-1, 1 h; Panc1, one hour treatment; read-out: In-Cell Western Panc1 (G12D) Akt (P). On the procedure: (§3) In-cell phosphorylation assays for Erk and Akt were performed on several of the compounds and exemplary results are shown in Table 3 below using HCC827 and A375 cell lines for wild type K-Ras and Panc1 and Panc10.05 cell lines for G12D K-Ras mutants. Results are expressed in μM and corresponding structures are shown in FIGS. 2A-2G and Examples 1-152, above.
(§4) Cells are seeded in complete medium into black sided, clear-bottom 384-well microplates at 3000 cells/[…]/well. Plates are returned to 37° C. CO2 incubator for 18 hr. Drug is made as 200× in DMSO and diluted into medium to 10×. To each well is added 4 ul 10× test article or controls, and plates are returned to the incubator. Final assay DMSO concentration is 0.5%. After one hour, cells are fixed in formaldehyde, rinsed & permeabilized with triton X-100, and blocked with BSA/Goat serum blocking solution. Primary phospho-Akt and phospho-ERK antibodies are added and plates are incubated overnight at 4° C. Plates are rinsed with Tween-20 wash buffer and secondary antibody (Goat anti-rabbit, Thermofisher) is added. After 2 hours, plates are rinsed in Tween-20 wash buffer, and then PBS. Plates are imaged on the Celigo (Nexcelom) and cellular fluorescence is quantitated. Full inhibition of phospho-Akt is achieved with 1 uM BEZ235 (Sellekchem), while full inhibition of phospho-ERK is achieved with 1 uM MEK Inhibitor II Calbiochem). EC50 values are calculated using Graphpad Prism.

Assay [10] has as its system phospho-ERK in Panc10.05 (G12D). Description: In-Cell Western phospho-ERK, Panc10.05. Conditions: Homo sapiens, Panc1005, 1 h; Panc10.05, one hour treatment; read-out: In-Cell Western Panc10.05 (G12D) Erk (P). On the procedure:
as §3, §4

Assay [11] concerns phospho-ERK in Panc1 (G12D). Description: In-Cell Western phospho-ERK, Panc1. To be noted: Homo sapiens, PANC-1, 1 h; Panc1, one hour treatment; read-out: In-Cell Western Panc1 (G12D) Erk (P). As for the experimental part:
as §3, §4

On to `Cc1nc(C)c(C(=O)Nc2nc(-c3ccc4c(c3)CCC(=O)N4Cc3cccc4c3OCO4)cs2)o1` [Compound 73, N-(4-(1-(benzo[d][1,3]dioxol-4-ylmethyl)-2-oxo-1,2,3,4-tetrahydroquinolin-6-yl)thiazol-2-yl)-2,4-dimethyloxazole-5-carboxamide], for which the IC50 in assay [1] is 3 µM; in assay [2], 19.2 µM; in assay [3], 3 µM; in assay [4], 18.8 µM; in assay [5], 12 µM; in assay [6], 7 µM. The figures for the IC50 in [7] and in assay [8] were 4 µM and 0.733 µM, respectively.

Consider `CCc1nc(C)c(C(=O)Nc2nc(-c3ccc4c(c3)CCC(=O)N4Cc3ccccc3)cs2)o1` [Compound 59, N-(4-(1-benzyl-2-oxo-1,2,3,4-tetrahydroquinolin-6-yl)thiazol-2-yl)-2-ethyl-4-methyloxazole-5-carboxamide], for which the IC50 in assay [1] came to 10 µM; in assay [2], 5.8 µM; in [3] it was 6 µM; in assay [4] it was 6.5 µM; in assay [6], 2 µM; in [7], 4 µM. Also, the IC50 in assay [8] was 11 µM. The EC50 in assay [9] came to 6 µM; in assay [10], 3 µM; in assay [11] it was 3 µM.

For `Cc1nc(C2CC2)oc1C(=O)Nc1nc(-c2ccc3c(c2)CCC(=O)N3CCc2ccccc2)cs1` [Compound 61, 2-cyclopropyl-4-methyl-N-(4-(2-oxo-1-phenethyl-1,2,3,4-tetrahydroquinolin-6-yl)thiazol-2-yl)oxazole-5-carboxamide], the IC50 stood at 1.3 µM in assay [1]; 5.1 µM in assay [2]; 3 µM in [3]; 8.5 µM in [4]; 1.6 µM in [6]; 2.1 µM in assay [7]. For the same compound, the IC50 in [8] worked out at 0.87 µM. The values for the EC50 in assay [9], in assay [10] and in assay [11] were 2 µM, 2 µM and 0.528 µM, respectively.

Turning to `COc1cccc(CN2C(=O)CCc3cc(-c4csc(NC(=O)c5oc(C)nc5C)n4)ccc32)c1` [Compound 76, N-(4-(1-(3-methoxybenzyl)-2-oxo-1,2,3,4-tetrahydroquinolin-6-yl)thiazol-2-yl)-2,4-dimethyloxazole-5-carboxamide], the IC50 amounted to 2 µM in assay [1]; 13.9 µM in assay [2]; 4 µM in assay [3]; 12.6 µM in assay [4]; 17 µM in assay [5]; 5 µM in assay [6]. Further, the IC50 in assay [7] worked out at 5 µM; in assay [8] it was 0.679 µM.

With `Cc1nc(C)c(C(=O)Nc2nc(-c3ccc4c(c3)CCC(=O)N4CC3CCCCC3)cs2)o1` [Compound 62, N-(4-(1-(cyclohexylmethyl)-2-oxo-1,2,3,4-tetrahydroquinolin-6-yl)thiazol-2-yl)-2,4-dimethyloxazole-5-carboxamide], the IC50 is 3 µM in [1]; 21.7 µM in assay [2]; 4 µM in assay [3]; greater than 25 µM in assay [4]; 5 µM in assay [6]; 3 µM in assay [7]. Also, the IC50 in assay [8] came out at 2 µM. The results for the EC50 in assay [9], in assay [10] and in [11] were 6 µM, 6 µM and 2 µM, respectively.

Take `Cc1nc(C2CCOC2)oc1C(=O)Nc1nc(-c2ccc3c(c2)CCC(=O)N3)cs1` (stereo not shown) [Compound 10, 4-methyl-N-(4-(2-oxo-1,2,3,4-tetrahydroquinolin-6-yl)thiazol-2-yl)-2-(tetrahydrofuran-3-yl)oxazole-5-carboxamide]: the IC50 was 5 µM in assay [1]; 22 µM in [2]; 5 µM in assay [3]; greater than 25 µM in assay [4]; 23 µM in [5]; 4 µM in assay [6]. Besides, the IC50 in assay [7] and in assay [8] was 2 µM each time.

As for `Cc1nc(C)c(C(=O)Nc2nc(-c3ccc4c(c3)CCC(=O)N4Cc3cncc4ccccc34)cs2)o1` [Compound 82, N-(4-(1-(isoquinolin-4-ylmethyl)-2-oxo-1,2,3,4-tetrahydroquinolin-6-yl)thiazol-2-yl)-2,4-dimethyloxazole-5-carboxamide], the IC50 in assay [1] is 13 µM; in assay [2], 24.6 µM; in assay [3], 10 µM; in assay [4] it was greater than 25 µM; in assay [5], greater than 25 µM; in assay [6] it was greater than 25 µM. The IC50 in assay [7] was 4 µM; in assay [8] it was greater than 25 µM.

As to `CCn1cc(C(=O)Nc2nc(-c3ccc4c(c3)CCC(=O)N4)cs2)c(C)n1` [Compound 25, 1-ethyl-3-methyl-N-(4-(2-oxo-1,2,3,4-tetrahydroquinolin-6-yl)thiazol-2-yl)-1H-pyrazole-4-carboxamide], the IC50 in assay [1] was determined as 2 µM; in [2], 6.6 µM; in assay [3], 2 µM; in assay [4] it was 10.7 µM; in assay [5], 7 µM; in assay [6] it was 2 µM. Besides, the IC50 came out at 1.1 µM in assay [7] and 0.774 µM in assay [8].

`Cn1nc2ccccc2c1C(=O)Nc1nc(-c2ccc3c(c2)CCC(=O)N3)cs1` [Compound 26, 2-methyl-N-(4-(2-oxo-1,2,3,4-tetrahydroquinolin-6-yl)thiazol-2-yl)-2H-indazole-3-carboxamide]: the IC50 in [1] was 1.4 µM; in assay [2], 10.6 µM; in [3], 1 µM; in assay [4], greater than 25 µM; in assay [5] it was 6 µM; in [6] it was 2 µM. For the same compound, the IC50 in assay [7] was less than 0.8 µM; in assay [8], 1.1 µM.

Consider `Cc1nc(C)c(C(=O)Nc2nc(-c3ccc4c(c3)CCC(=O)N4Cc3ccccc3)cs2)o1` [Compound 60, N-(4-(1-benzyl-2-oxo-1,2,3,4-tetrahydroquinolin-6-yl)thiazol-2-yl)-2,4-dimethyloxazole-5-carboxamide], for which the IC50 in assay [1] stood at 14 µM; in [2], 7.4 µM; in assay [3], 7 µM; in [4] it was 8.6 µM; in [6], 2 µM; in assay [7] it was 6 µM. The IC50 in assay [8] turned out to be 13 µM. Also, the results for the EC50 in [9], in assay [10] and in [11] were 6 µM, 3 µM and 4 µM, respectively.
